Results published in US20080003254A1, “SYSTEMS AND METHODS FOR DELIVERING A RAPAMYCIN ANALOG THAT DO NOT INHIBIT HUMAN CORONARY ARTERY ENDOTHELIAL CELL MIGRATION” (ABBOTT LABORATORIES, priority 2006, published 2008).
Values belong to the molecule of their own block, whether it stands above or below them.

What was measured:
[1] = tested on: human coronary artery endothelial cells (hCaEC); test: hCaEC migration in modified Boyden chambers; format: cell-based; conditions: for effect on full growth media induced hCaEC migration: 24 hours drug pretreatment in hCaEC full growth media, drug present during migration, FIG. 2; for effect on FBS-induced hCaEC migration: 24 hours drug pretreatment in growth media, migration in response to 5% FBS without additional growth factors, FIG. 3; for effect on hCaEC migration: FIG. 1A
Experimental: (§1) The cancer chemotherapeutic, paclitaxel is hypothesized to directly interfere with microtubule homeostasis leading to the inhibition of EC migration and proliferation, which can lead to increased thrombosis. Reduced p70S6K activation alone will not result in anti-migratory activity. To examine the comparative effects of sirolimus, zotarolimus, dexamethasone, and paclitaxel on human coronary artery smooth muscle and endothelial cell migration, studies were conducted using modified Boyden chambers. As such, EC migration in response to HFGF, HEGF, VEGF, R^3-IGF-1 and FBS was determined using a modified Boyden chamber. Migration was induced using a variety of chemotactic stimuli including fetal bovine serum (FBS) in the presence and absence of growth factors as well as […] homodimer B (PDGF-BB). Anti-migratory activity was assessed after acute drug treatment and after pretreatment (24 hours) in basal or growth conditions.
(§2) Primary human coronary artery smooth muscle (hCaSMC) and endothelial cells (hCaEC) obtained from Cambrex (Walkersville, Md.) were routinely maintained in media recommended by the manufacturer. The hCaSMC were grown in a smooth muscle growth medium (“minimal media”, SmnBM, Cambrex) supplemented with the appropriate SingleQuot® to yield the complete medium containing 5% FBS, 0.1% hEGF, 0.2% hFGF-B, and 0.1% insulin (hCaSMC growth media). The hCaEC were maintained in the corresponding complete medium consisting of an endothelial cell growth medium (“minimal media”, EBM-2, Cambrex) supplemented with the appropriate SingleQuot® to yield the complete medium containing 5% FBS, 0.1% HEGF-B, 0.4% FGF, 0.1% R3-IGF, 0.04% hydrocortisone, 0.1% VEGF, and 0.1% ascorbic acid (hCaEC growth media). Cells were routinely propagated in the appropriate medium in humidified incubators maintained at 37° C. in an atmosphere containing 5% CO2. When necessary, each cell type was passed at 75% confluence.
(§3) Cells were maintained and used prior to 7 population doublings in all experiments. To expand cells prior to assay, frozen hCaSMC or hCaEC cells were thawed and cultured in T-162 flasks in smooth muscle growth medium (SmGM) or endothelial cell growth medium-2 (EGM-2), respectively, with the appropriate supplements. The cell medium was changed the next day and then every other day until cells reached 70-90% confluency. Growth medium was removed and cells were rinsed twice with PBS (without Ca^2+ and Mg^2+). To detach cells, sufficient trypsin/EDTA (3 ml) was added to cover the cell monolayer and the flask incubated at room temperature. After cells detached, trypsin was neutralized by addition of 6 ml complete medium. Cells were counted, transferred to a 50 ml tube and centrifuged. The cell pellet was re-suspended in growth medium to the appropriate cell density for experiments.
(§4) Cells (hCaEC or hCaSMC) were synchronized for 24 hours in basal media prior to all migration experiments. In acute studies, cells were collected, counted, and 200,000 hCaEC or 160,000 hCaSMC placed in the upper chambers of modified boyden chambers in 24 well plates (BD Biosciences). Plates contained microporous Fluoroblok membranes of 3.0 and 8.0 um for hCaEC and hCaSMC, respectively (Beckton Dickensen Biosciences). Chambers used in hCaEC migration experiments were coated with fibronectin (BD BioCoat). In pretreatment experiments, cells were synchronized in the presence of drug or treated for 24 hours in growth media after synchronization but prior to cell counting and migration. All cells were resuspended in basal media containing drugs or solvent (control) prior to migration. Cells were allowed to migrate in response to chemotatic agents for 22-24 hours. After migration, cells were stained with calcein-AM for 90 minutes and fluorescence determined using a plate reader capable of measuring fluorescence emitted by the bottom of the microporous filter. […]

[2] = tested on: human coronary artery smooth muscle cells (hCaSMC); test: hCaSMC migration in modified Boyden chambers; format: cell-based; conditions: for effect on FBS-induced hCaSMC migration: 24 hours drug pretreatment in growth media, migration in response to FBS alone, FIG. 4; for effect on PDGF-BB stimulated hCaSMC migration: 24 hours pretreatment, PDGF-BB (25 ng/ml), FIG. 5
Experimental: as §1, §2, §3, §4

[3] = tested on: p70S6K (T389) phosphorylation; test: Western blot of p70S6K (T389) phosphorylation in hCaEC; format: cell-based, human; conditions: for effect on p70S6K T389 phosphorylation in hCaEC: 300 nM drug in growth media for 36 hours after 24 hours synchronization, FIG. 6A
Experimental: Human Coronary Endothelial Cells (hCaEC, Cambrex) were seeded on 100 mm plastic dishes (1-3×10^5 cells per dish) and incubated at 37° C. with 5% CO2 in complete growth media containing hFGF, HEGF, VEGF, R^3-IGF-1 and 5% FBS (GM). Cells were allowed to grow until dishes were 30-40% confluent. Cells were synchronized by incubation in basal media without supplements (BM) for 24 h. After synchronization the BM was replaced with GM containing test compounds, DMSO and BSA (Experimental dish: GM containing 300 nM test compounds, 0.1% BSA; Positive control: GM containing 0.1% BSA and 0.1% DMSO; Negative control: BM containing 0.1 or 0.5% FBS, 0.1% BSA and 0.1% DMSO).
Cells were incubated for 24 or 36 hours at 37° C. with 5% CO2. After which dishes were 50-70% confluent. Dishes were rinsed with warm PBS to remove excess FBS and than placed on ice. Whole cell lysates were prepared by adding 150-200 ul of RIPA lysis buffer at 4° C. (50 mM Tris HCl pH 8, 150 mM NaCl, 1% NP-40, 0.5% sodium deoxycholate, 0.1% SDS, 2 mM PMSF, 1 mM sodium orthovanadate, and protease inhibitor cocktail, Santa Cruz Biotechnology) to the culture dishes and collected by scrapping the plate surface with a cell scrapper. Lysates were transferred to 1 ml eppendorf tubes and incubated on ice with vortexing for 30 min. Samples were than centrifuged for 8 min at 10000 rpm. […]
The total protein concentration of the samples was determined by a modification of the method of Bradford (Quick Start Bradford Microplate Standard Assay, Bio-Rad) with bovine γ-globulin as a standard.
Total volume of the loaded sample was 45 ul containing 15 ul of 3× sample buffer (Laemmli Sample Buffer, Bio Rad), and sample (30 ul) containing 25 to 50 ug of protein. […] Denaturated samples were separated in 4-15% gradient or 12% Ready Tris-HCl gels (Bio-Rad) in running buffer 25 mM Tris, pH 8.3, 192 mM glycine, 0.1% SDS at 150-180 V for 60-90 minutes and transferred to Hybond-ECL membrane (Amersham Biosciences) in 25 mM Tris, pH 8.3, 192 mM glycine, 20% methanol at 100 V for 1 hour. […]

[4] = tested on: p70S6K (T389) phosphorylation; test: Western blot of p70S6K (T389) phosphorylation in hCaSMC; format: cell-based, human; conditions: 300 nM drug for 36 hours after 24 hours synchronization; FIG. 7
Experimental: To determine if inhibition of p70S6K was involved in serum-induced migration Western blot experiments were performed on hCaEC and hCaSMC treated using an experimental paradigm similar to those of the migration experiments. Cells were synchronized for 24 hours in basal media followed by drug treatment in growth media for 36 hours. The effects of drug treatment on p70S6K T389 phosphorylation in hCaEC are illustrated in FIG. 6A-6B.
The hCaSMC were synchronized for 24 hours in basal media and incubated in growth media with or without drugs (300 nM) for 36 hours […]. Membranes were probed with a rabbit anti-phospho-p70S6K (T389) monoclonal antibody (Cell Signaling). […] Furthermore, the anti-migratory activity of the mTOR antagonists is not likely to contribute to their anti-restenotic activity. Conversely, paclitaxel is a potent anti-migratory agent and this effect is likely to contribute to it's anti-restenotic activity.

pRb phosphorylation = pRb phosphorylation (Western blot, hEC); format: cell-based, human
Description: Western blots have shown the levels of specific proteins using antibodies to those proteins in response to the rapamycin analog (e.g., zotarolimus). […] It has been shown that paclitaxel and zotarolimus inhibit the activation of p70S6K.
Additionally, it has been shown that paclitaxel, but not zotarolimus or dexamethasone, inhibits migration of human coronary artery endothelial cells in vitro. […] Paclitaxel blocks migration, however, all agents reduce p70S6K (T389) phosphorylation. […] Dexamethasone and zotarolimus are not predicted to inhibit re-endothelialization of vascular legions, and dexamethasone may promote re-endothelialization of vascular lesions. In contrast, paclitaxel inhibits re-endothelialization by blocking endothelial cell and/or smooth muscle cell migration.

[5] = acute drug exposure, no pretreatment, 5% FBS, 22 hour migration

SMILES: CO[C@H]1C[C@@H]2CC[C@@H](C)[C@@](O)(O2)C(=O)C(=O)N2CCCC[C@H]2C(=O)O[C@H]([C@H](C)C[C@@H]2CC[C@@H](OCCO)[C@H](OC)C2)CC(=O)[C@H](C)/C=C(\C)[C@@H](O)[C@@H](OC)C(=O)[C@H](C)C[C@H](C)/C=C/C=C/C=C/1C [everolimus]
effect on full growth media induced hCaEC migration [1]: only paclitaxel inhibits

IC50 ([2]; Homo sapiens, acute drug exposure, no pretreatment, 5% FBS, 22 hour migration, read-out: IC50 of inhibition of hCaSMC migration): 0.0874 ± 0.018 µM | IC50 ([1]; Homo sapiens, Endothelial cell, acute drug exposure, no pretreatment, migration induced by 5% FBS, 22 hour migration, mean±SEM, n=3, FIG. 1C, read-out: IC50 of inhibition of hCaEC migration): 0.0282 ± 0.0034 µM
SMILES: CC(=O)O[C@H]1C(=O)[C@@]2(C)[C@H]([C@H](OC(=O)c3ccccc3)[C@]3(O)C[C@H](OC(=O)[C@H](O)[C@@H](NC(=O)c4ccccc4)c4ccccc4)C(C)=C1C3(C)C)[C@]1(OC(C)=O)CO[C@@H]1C[C@@H]2O [paclitaxel]
effect on FBS-induced hCaSMC migration [2]: significantly blocks | effect on PDGF-BB stimulated hCaSMC migration [2]: inhibited migration | Emax ([2]; Homo sapiens, acute drug exposure, no pretreatment, 5% FBS, 22 hour migration, read-out: maximal efficacy of inhibition of hCaSMC migration): 86.9 ± 2.9% | effect on p70S6K T389 phosphorylation in hCaEC [3]: reduces T389 phosphorylation | effect on p70S6K T389 phosphorylation in hCaSMC [4]: reduces p70S6K | effect on FBS-induced hCaEC migration [1]: significantly blocks | effect on full growth media induced hCaEC migration [1]: inhibits | Emax ([1]; Homo sapiens, Endothelial cell, acute drug exposure, no pretreatment, 5% FBS, 22 hour migration, mean±SEM, n=3, read-out: maximal efficacy of inhibition of hCaEC migration): 96.8 ± 1.8%

SMILES: CO[C@H]1C[C@@H]2CC[C@@H](C)[C@@](O)(O2)C(=O)C(=O)N2CCCC[C@H]2C(=O)O[C@H]([C@H](C)C[C@@H]2CC[C@@H](O)[C@H](OC)C2)CC(=O)[C@H](C)/C=C(\C)[C@@H](O)[C@@H](OC)C(=O)[C@H](C)C[C@H](C)/C=C/C=C/C=C/1C [sirolimus]
effect on hCaEC migration [1, 5]: no effect

SMILES: CO[C@H]1C[C@@H]2CC[C@@H](C)[C@@](O)(O2)C(=O)C(=O)N2CCCC[C@H]2C(=O)O[C@H]([C@H](C)C[C@@H]2CC[C@H](n3cnnn3)[C@H](OC)C2)CC(=O)[C@H](C)/C=C(\C)[C@@H](O)[C@@H](OC)C(=O)[C@H](C)C[C@H](C)/C=C/C=C/C=C/1C [zotarolimus]
effect on FBS-induced hCaSMC migration [2]: did not significantly block | effect on PDGF-BB stimulated hCaSMC migration [2]: inhibited migration | effect on p70S6K T389 phosphorylation in hCaEC [3]: completely block | p70S6K T389 to actin ratio compared to growth controls (densitometry) ([3]; hCaEC, 300 nM drug, FIG. 6B): significant inhibition | effect on p70S6K T389 phosphorylation in hCaSMC [4]: completely inhibit | effect on FBS-induced hCaEC migration [1]: did not significantly block | effect on full growth media induced hCaEC migration [1]: only paclitaxel inhibits | effect on hCaEC migration [1, 5]: no effect | effect on pRb phosphorylation (pRb phosphorylation): reduces pRb phosphorylation
